Data as given in PubChem BioAssay AID330 (DTP/NCI, 2004).
Values joined by “and” are separate entries in the source; they are usually repeats but may differ in a detail not shown here. Equal values may be shown once. Inconclusive results and toxic doses are left out. Square brackets hold non-standard residues; d marks the D form. Peptide text beside a SMILES is read from it. ξ: configuration not given here. ξPhe(4-N(CH2CH2Cl)2) = NC(Cc1ccc(N(CCCl)CCCl)cc1)C(=O)O

Tested on: P388 leukemia ip, CD2F1 mice, survival T/C
Experiment: NCI In Vivo Anticancer Drug Screen. Data for tumor model P388 Leukemia (intraperitoneal) in CD2F1 (CDF1) mice
Settings: endpoint: median survival time, higher = longer survival
How it was run: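 Mice carrying the transplanted tumor received test compound or vehicle. Survival was recorded in each group, and the value is the treated-group measurement divided by that of the vehicle-treated control group.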

[1] = dose: 100.0 mg/kg/injection, schedule: Q01DX009 (ip), vehicle: saline with Tween-80
[2] = dose: 200.0 mg/kg/injection, schedule: Q01DX009 (ip), vehicle: saline with Tween-80
[3] = dose: 50.0 mg/kg/injection, schedule: Q01DX009 (ip), vehicle: saline with Tween-80
[4] = dose: 60.0 mg/kg/injection, schedule: Q01DX005 (ip), vehicle: saline
[5] = dose: 120.0 mg/kg/injection, schedule: Q01DX005 (ip), vehicle: saline
[6] = dose: 240.0 mg/kg/injection, schedule: Q01DX005 (ip), vehicle: saline

CC(C)CC(=O)CC(O)(C(F)(F)F)C(F)(F)F
T/C [1]: 109 % of control
T/C [2]: 113 % of control

CCOC(=O)C(Cc1ccc(N(CCCl)CCCl)cc1)NC(=O)C(Cc1ccccc1)NC(=O)C(NC(=O)CNC(=O)C1CCCN1)C(C)C (stereo not drawn) (H-PGVF[ξPhe(4-N(CH2CH2Cl)2)]-OEt; configuration not given here)
T/C (dose: 10.0 mg/kg/injection, schedule: Q04DX003 (ip), vehicle: water): 150 % of control
T/C (dose: 20.0 mg/kg/injection, schedule: Q04DX003 (ip), vehicle: water): 173 % of control
T/C (dose: 40.0 mg/kg/injection, schedule: Q04DX003 (ip), vehicle: water): 193 % of control

Cc1ncc(CO)n1C
T/C [3]: 104 % of control
T/C [1]: 101 % of control
T/C [2]: 101 % of control
T/C (dose: 400.0 mg/kg/injection, schedule: Q01DX009 (ip), vehicle: saline with Tween-80): 113 % of control

CCN(CC)C(=S)S[Se](SC(=S)N(CC)CC)(SC(=S)N(CC)CC)SC(=S)N(CC)CC
T/C (dose: 12.5 mg/kg/injection, schedule: Q01DX009 (ip), vehicle: Klucel (hydroxypropylcellulose) (HPC)): 103 % of control
T/C (dose: 25.0 mg/kg/injection, schedule: Q01DX009 (ip), vehicle: Klucel (hydroxypropylcellulose) (HPC)): 100 % of control
T/C (dose: 50.0 mg/kg/injection, schedule: Q01DX009 (ip), vehicle: Klucel (hydroxypropylcellulose) (HPC)): 97 % of control
T/C (dose: 100.0 mg/kg/injection, schedule: Q01DX009 (ip), vehicle: Klucel (hydroxypropylcellulose) (HPC)): 104 % of control

Cc1cccc(CSCc2c(CSCc3cccc(C)c3)c(CSCc3cccc(C)c3)c(CSCc3cccc(C)c3)c(CSCc3cccc(C)c3)c2CSCc2cccc(C)c2)c1
T/C (dose: 100.0 mg/kg/injection, schedule: Q01DX001 (ip), vehicle: saline with Tween-80): 114 % of control
T/C (dose: 200.0 mg/kg/injection, schedule: Q01DX001 (ip), vehicle: saline with Tween-80): 105 % of control
T/C (dose: 400.0 mg/kg/injection, schedule: Q01DX001 (ip), vehicle: saline with Tween-80): 101 % of control

Cc1ccc2c(c1)N=C(Nc1ccccc1)N=S2(C)=O (stereo not drawn)
T/C (dose: 12.5 mg/kg/injection, schedule: Q01DX009 (ip), vehicle: saline with Tween-80): 93 % of control
T/C (dose: 25.0 mg/kg/injection, schedule: Q01DX009 (ip), vehicle: saline with Tween-80): 92 % of control
T/C [3]: 117 % of control and 119 % of control
T/C [1]: 104 % of control

Cn1c(=O)c2[nH]c(-c3c[nH]c4ccccc34)nc2n(C)c1=O
T/C (dose: 100.0 mg/kg/injection, schedule: Q04DX003 (ip), vehicle: saline with Tween-80): 89 % of control
T/C (dose: 200.0 mg/kg/injection, schedule: Q04DX003 (ip), vehicle: saline with Tween-80): 89 % of control
T/C (dose: 400.0 mg/kg/injection, schedule: Q04DX003 (ip), vehicle: saline with Tween-80): 86 % of control

COC(=O)C/C(C)=N/SC(c1ccccc1)(c1ccccc1)c1ccccc1
T/C (dose: 100.0 mg/kg/injection, schedule: Q04DX002 (ip), vehicle: saline with Tween-80): 95 % of control
T/C (dose: 200.0 mg/kg/injection, schedule: Q04DX002 (ip), vehicle: saline with Tween-80): 101 % of control
T/C (dose: 400.0 mg/kg/injection, schedule: Q04DX002 (ip), vehicle: saline with Tween-80): 94 % of control

Cn1c(=O)c2c(ncn2-c2ccc(N)cc2)n(C)c1=O
T/C (dose: 1.56 mg/kg/injection, schedule: Q01DX005 (ip), vehicle: water): 95 % of control
T/C (dose: 3.12 mg/kg/injection, schedule: Q01DX005 (ip), vehicle: water): 105 % of control
T/C (dose: 6.25 mg/kg/injection, schedule: Q01DX005 (ip), vehicle: other): 104 % of control
T/C (dose: 6.25 mg/kg/injection, schedule: Q01DX005 (ip), vehicle: water): 96 % of control
T/C (dose: 12.5 mg/kg/injection, schedule: Q01DX005 (ip), vehicle: other): 106 % of control
T/C (dose: 12.5 mg/kg/injection, schedule: Q01DX005 (ip), vehicle: water): 102 % of control
T/C (dose: 25.0 mg/kg/injection, schedule: Q01DX005 (ip), vehicle: other): 101 % of control
T/C (dose: 50.0 mg/kg/injection, schedule: Q01DX005 (ip), vehicle: water): 101 % of control

CCCCCCCC[N+]1([O-])CC[N+](C)([O-])CC1 (stereo not drawn)
T/C [4]: 100 % of control
T/C [5]: 101 % of control
T/C [6]: 102 % of control

Nc1cc2nc3ccccc3nc2cc1O
T/C (dose: 50.0 mg/kg/injection, schedule: Q01DX005 (ip), vehicle: saline with Tween-80): 90 % of control
T/C (dose: 100.0 mg/kg/injection, schedule: Q01DX005 (ip), vehicle: saline with Tween-80): 90 % of control
T/C (dose: 200.0 mg/kg/injection, schedule: Q01DX005 (ip), vehicle: saline with Tween-80): 90 % of control

O=C1CC2OC3C(C2O1)N(C(=O)OCc1ccccc1)C[C@H]3O (stereo partly drawn)
T/C [4]: 106 % of control
T/C [5]: 98 % of control
T/C [6]: 105 % of control
